Reference: ChEMBL document CHEMBL1201862, “PubChem BioAssay data set” (2004)
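48-hour exposure; five concentrations; linearly interpolated endpoints. At the GI50, growth is halved.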 Active and inactive are the calls of the source. Rule as the data show it: active = GI50 up to about 1.1 µM and inactive = higher.

Experiments:
Test in all cases: NCI tumour cell line growth inhibition, 48 h
786-0 = tested on: 786-0
A498 = tested on: A498
A549 = tested on: A549
ACHN = tested on: ACHN
CAKI-1 = tested on: CAKI-1
CCRF-CEM = tested on: CCRF-CEM
COLO 205 = tested on: COLO 205
DLD-1 = tested on: DLD-1
DMS-114 = tested on: DMS-114
DMS-273 = tested on: DMS-273
EKVX = tested on: EKVX
HCC 2998 = tested on: HCC 2998
HCT-15 = tested on: HCT-15
HL-60 = tested on: HL-60
HOP-18 = tested on: HOP-18
HOP-62 = tested on: HOP-62
HT-29 = tested on: HT-29
IGROV-1 = tested on: IGROV-1
K562 = tested on: K562
KM-20L2 = tested on: KM-20L2
KM12 = tested on: KM12
LOX IMVI = tested on: LOX IMVI
LXFL 529 = tested on: LXFL 529
M14 = tested on: M14
M19-MEL = tested on: M19-MEL
MOLT-4 = tested on: MOLT-4
Malme-3M = tested on: Malme-3M
NCI-H226 = tested on: NCI-H226
NCI-H23 = tested on: NCI-H23
NCI-H460 = tested on: NCI-H460
NCI-H522 = tested on: NCI-H522
OVCAR-3 = tested on: OVCAR-3
OVCAR-4 = tested on: OVCAR-4
OVCAR-5 = tested on: OVCAR-5
OVCAR-8 = tested on: OVCAR-8
RPMI-8226 = tested on: RPMI-8226
RXF 631 = tested on: RXF 631
SF-268 = tested on: SF-268
SF-295 = tested on: SF-295
SF-539 = tested on: SF-539
SK-MEL-28 = tested on: SK-MEL-28
SK-MEL-2 = tested on: SK-MEL-2
SK-MEL-5 = tested on: SK-MEL-5
SK-OV-3 = tested on: SK-OV-3
SN12C = tested on: SN12C
SNB-19 = tested on: SNB-19
SNB-75 = tested on: SNB-75
SNB-78 = tested on: SNB-78
SW-620 = tested on: SW-620
TK-10 = tested on: TK-10
U-251 = tested on: U-251
UACC-257 = tested on: UACC-257
UACC-62 = tested on: UACC-62
UO-31 = tested on: UO-31
XF498 = tested on: XF498

With `Nc1c(-c2ccc(Cl)cc2Cl)[n+]([O-])c2ccccc2[n+]1[O-]` the GI50 (786-0) was > 100 µM (inactive), the GI50 (A498) was > 100 µM (inactive) and the GI50 (A549) was > 100 µM (inactive). The GI50 (ACHN) was > 100 µM (inactive), the GI50 (CAKI-1) was > 100 µM (inactive) and the GI50 (CCRF-CEM) was > 100 µM (inactive). The GI50 (COLO 205) was > 100 µM (inactive), the GI50 (DLD-1) was > 100 µM (inactive) and the GI50 (DMS-114) was > 100 µM (inactive). For the same molecule, the GI50 (DMS-273) was > 100 µM (inactive), the GI50 (EKVX) was > 100 µM (inactive) and the GI50 (HCC 2998) was > 100 µM (inactive). The GI50 (HCT-15) was over 100 µM, the GI50 (HL-60) was > 100 µM (inactive) and the GI50 (HOP-18) was 76 µM (inactive). For the same molecule, the GI50 (HOP-62) was > 100 µM (inactive), the GI50 (HT-29) was > 100 µM (inactive) and the GI50 (IGROV-1) was > 100 µM (inactive). For the same molecule, the GI50 (K562) was > 100 µM (inactive), the GI50 (KM-20L2) was > 100 µM (inactive) and the GI50 (KM12) was > 100 µM (inactive). For the same molecule, the GI50 (LOX IMVI) was > 100 µM (inactive), the GI50 (LXFL 529) was > 100 µM (inactive) and the GI50 (M14) was > 100 µM (inactive). For the same molecule, the GI50 (M19-MEL) was > 100 µM (inactive), the GI50 (MOLT-4) was > 100 µM (inactive) and the GI50 (Malme-3M) was > 100 µM (inactive). For the same molecule, the GI50 (NCI-H226) was > 100 µM (inactive), the GI50 (NCI-H23) was > 100 µM (inactive) and the GI50 (NCI-H460) was > 100 µM (inactive). The GI50 (NCI-H522) was 37.4 µM (inactive), the GI50 (OVCAR-3) was > 100 µM (inactive) and the GI50 (OVCAR-4) was > 100 µM (inactive). For the same molecule, the GI50 (OVCAR-5) was > 100 µM (inactive), the GI50 (OVCAR-8) was > 100 µM (inactive) and the GI50 (RPMI-8226) was > 100 µM (inactive). The GI50 (RXF 631) was > 100 µM (inactive), the GI50 (SF-268) was > 100 µM (inactive) and the GI50 (SF-295) was > 100 µM (inactive). For the same molecule, the GI50 (SF-539) was > 100 µM (inactive), the GI50 (SK-MEL-28) was > 100 µM (inactive) and the GI50 (SK-MEL-2) was > 100 µM (inactive). The GI50 (SK-MEL-5) was > 100 µM (inactive), the GI50 (SK-OV-3) was > 100 µM (inactive) and the GI50 (SN12C) was > 100 µM (inactive). For the same molecule, the GI50 (SNB-19) was > 100 µM (inactive), the GI50 (SNB-75) was 48.2 µM (inactive) and the GI50 (SNB-78) was > 100 µM (inactive). For the same molecule, the GI50 (SW-620) was > 100 µM (inactive), the GI50 (TK-10) was > 100 µM (inactive) and the GI50 (U-251) was > 100 µM (inactive). For the same molecule, the GI50 (UACC-257) was > 100 µM (inactive), the GI50 (UACC-62) was > 100 µM (inactive) and the GI50 (UO-31) was > 100 µM (inactive). For the same molecule, the GI50 (XF498) was > 100 µM (inactive).
